The species named for assay [1] is Rattus norvegicus. The assay is described as follows: Potentiation of (-)-norepinephrine-induced tissue contraction in albino Sprague-Dawley rat reserpine-treated adrenergically innervated vas deferens after 15 mins by isotonic myograph analysis. The assay is classed as functional, tissue-based.
Assay [2] deals with Vas deferens. The assay is described as follows: Intrinsic activity of (-)-norepinephrine-induced tissue contraction in albino Sprague-Dawley rat reserpine-treated adrenergically innervated vas deferens after 15 mins by isotonic myograph analysis. The assay is classed as functional, tissue-based.
The nature of assay [3]: Potentiation of (-)-norepinephrine-induced tissue contraction in albino Sprague-Dawley rat reserpine-treated adrenergically innervated vas deferens at 3 x 10^-4 M after 15 mins by isotonic myograph analysis. The format is functional.
Assay [4] is described as follows: Induction of tissue contraction in albino Sprague-Dawley rat reserpine-treated adrenergically innervated vas deferens at 3 x 10^-7 M by isotonic myograph analysis. The assay is classed as functional.
Assay [5] deals with Vas deferens. Description: Intrinsic activity of (-)-norepinephrine-induced tissue contraction in albino Sprague-Dawley rat reserpine-treated adrenergically innervated vas deferens at 3 x 10^-6 M after 15 mins by isotonic myograph analysis. The format is functional.
A short description of assay [6]: Potentiation of (-)-norepinephrine-induced tissue contraction in albino Sprague-Dawley rat reserpine-treated adrenergically innervated vas deferens at 3 x 10^-6 M after 15 mins by isotonic myograph analysis. The assay is classed as functional.
The test system of assay [7] is Vas deferens. The assay is described as follows: Intrinsic activity of (-)-norepinephrine-induced tissue contraction in albino Sprague-Dawley rat reserpine-treated adrenergically innervated vas deferens at 1 x 10^-5 to 3 x 10^-5 M after 15 mins by isotonic myograph analysis. The format is functional, tissue-based.
For assay [8], the species on record is Rattus norvegicus. Description: Potentiation of (-)-norepinephrine-induced tissue contraction in albino Sprague-Dawley rat reserpine-treated adrenergically innervated vas deferens at 3 x 10^-5 to 3 x 10^-4 M after 15 mins by isotonic myograph analysis. The assay is classed as functional, tissue-based.

Calls of active or inactive are those of the source. The calls are words filed in the database; no cut-off is given here. Where only a bound is given, the exact number is not on record here.

In the case of `N[C@@H]1CC[C@@]1(O)c1ccccc1`, the results for the Activity result (in the assay filed under Rattus norvegicus [1]; in assay [3]) were “Dose-dependent effect” and 55%, respectively. Besides, the outcome in the assay on Vas deferens [2] was inactive.
In assay [4], `NCC(O)c1ccc(O)c(O)c1` (centres undefined) displayed an Activity of 10%.
With `CC(N)C(O)c1ccccc1` (centres undefined) [PHENYLPROPANOLAMINE], the Activity is <5% with Vas deferens [5] and 66% in assay [6]. In addition, the result in the assay with Vas deferens [7] was Active.
As for `N[C@@H]1CC[C@]1(O)c1ccccc1`, the result in the assay filed under Rattus norvegicus [8] and with Vas deferens [2] was inactive.

Source of the values: ChEMBL document CHEMBL3272088, “Stereochemical studies of adrenergic drugs. Diastereomeric 2-amino-1-phenylcyclobutanols” (1976).
